Assay results taken from patent US9682995B2, “Amino-substituted isothiazoles” (BAYER PHARMA AKTIENGESELLSCHAFT, priority 2013, dated 2017).

Tests used:
[1] = test system: spindle assembly checkpoint; experiment: SAC-Formation - Nocodazole-Induced Assay; format: cell-based; settings: Homo sapiens; HeLa cells, nocodazole 0.1 μg/ml, 24 h, phosphorylated histone H3 on serine 10
Outline: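 HeLa cells were given nocodazole at 0.1 μg/ml final together with compounds (0.005–20 μM, 0.5% DMSO) for 24 h at 37° C. Mitotic cells were counted by phospho-histone H3 Ser10 immunostaining, with cell number from HOECHST 33342, by high-content imaging. The loss of mitotic cells was fitted with a four-parameter Hill equation.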

human Bub1 = human Bub1 (Homo sapiens (Human), UniProt O43683); experiment: Bub1 kinase assay (TR-FRET); format: biochemical; settings: 10 μM ATP; read-out: Bub1 avg (IC50 [mol/l])
Chain of human Bub1 (O43683 704-1085): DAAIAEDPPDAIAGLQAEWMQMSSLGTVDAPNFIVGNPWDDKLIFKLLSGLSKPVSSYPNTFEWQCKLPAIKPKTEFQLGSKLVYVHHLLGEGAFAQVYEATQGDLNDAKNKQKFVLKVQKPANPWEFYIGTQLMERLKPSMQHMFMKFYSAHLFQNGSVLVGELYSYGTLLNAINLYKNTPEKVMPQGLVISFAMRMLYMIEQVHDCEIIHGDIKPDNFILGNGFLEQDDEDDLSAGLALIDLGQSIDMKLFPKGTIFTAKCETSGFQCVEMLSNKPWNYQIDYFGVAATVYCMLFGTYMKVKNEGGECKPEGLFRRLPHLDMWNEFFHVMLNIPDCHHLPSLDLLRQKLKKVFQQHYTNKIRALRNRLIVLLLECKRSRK
Outline: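 His6-tagged human Bub1 catalytic domain (aa 704-1085, insect-cell expressed, ~200 ng/ml) preincubated with compound 15 min, then reacted 60 min at 22 °C with 10 μM ATP and 1 μM biotinylated peptide (final) in pH 7.5 Tris buffer. Phosphopeptide detected by TR-FRET 665/620 ratio, normalised to no-inhibitor and no-enzyme controls.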

Row | Compound | IC50 [1] | IC50 (human Bub1)
1 | COC(=O)c1cnc(Nc2snc(C)c2C(=O)Nc2ccc(F)c(F)c2)cn1 [Example 59, Methyl 5-({4-[(3,4-difluorophenyl)carbamoyl]-3-methyl-1,2-thiazol-5-yl}amino)-pyrazine-2-carboxylate] | 260 nM | > 20 µM
2 | CCc1ccccc1NC(=O)c1c(C)nsc1Nc1ncccc1C(F)(F)F [Example 3, N-(2-Ethylphenyl)-3-methyl-5-{[3-(trifluoromethyl)pyridin-2-yl]amino}-1,2-thiazole-4-carboxamide] | 3000 nM | > 20 µM
3 | COc1ccc2nc(Nc3snc(C)c3C(=O)Nc3ccc(OC)nc3)sc2c1 [Example 87, 5-[(6-Methoxy-1,3-benzothiazol-2-yl)amino]-N-(6-methoxypyridin-3-yl)-3-methyl-1,2-thiazole-4-carboxamide] | 590 nM | 11 µM
4 | Cc1nsc(Nc2cnc3cc(C(F)(F)F)ccc3n2)c1C(=O)Nc1ccc(F)c(F)c1 [Example 60, N-(3,4-Difluorophenyl)-3-methyl-5-{[6-(trifluoromethyl)quinoxalin-2-yl]amino}-1,2-thiazole-4-carboxamide] | 40 nM | > 20 µM
5 | Cc1nsc(Nc2cnc3cc(C(F)(F)F)ccc3n2)c1C(=O)Nc1ccc(Cl)c(Cl)c1 [Example 61, N-(3,4-Dichlorophenyl)-3-methyl-5-{[6-(trifluoromethyl)quinoxalin-2-yl]amino}-1,2-thiazole-4-carboxamide] | 310 nM | > 20 µM

Now from value to compound:

Row | IC50 [1] | IC50 (human Bub1) | Compound
6 | 6.2 nM | > 20 µM | COc1ccc(NC(=O)c2c(C)nsc2Nc2cnc(C(F)(F)F)cn2)cn1 [Example 85, N-(6-methoxypyridin-3-yl)-3-methyl-5-{[5-(trifluoromethyl)pyrazin-2-yl]amino}-1,2-thiazole-4-carboxamide]
7 | 21 nM | 15 µM | Cc1nsc(Nc2cncc(C(F)(F)F)n2)c1C(=O)Nc1ccc(F)c(F)c1 [Example 82, N-(3,4-Difluorophenyl)-3-methyl-5-{[6-(trifluoromethyl)pyrazin-2-yl]amino}-1,2-thiazole-4-carboxamide]
8 | 1400 nM | 0.21 µM | COc1ccc(NC(=O)c2c(C)nsc2Nc2nc3cccnc3s2)cn1 [Example 89, N-(6-Methoxypyridin-3-yl)-3-methyl-5-([1,3]thiazolo[5,4-b]pyridin-2-ylamino)-1,2-thiazole-4-carboxamide]
